Results as given in PubChem BioAssay (NCI).
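Where inhibition never reached the appropriate level, the endpoint shown equals the highest concentration tested. Otherwise, values were interpolated linearly from a five-concentration, 48-hour dose response in 96-well plates. GI50 marks 50% less growth. TGI marks complete inhibition of growth.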

Tests used:
Assay in all cases: growth of human tumour cells (NCI), 48 h
OVCAR-4 ovarian = tested on: OVCAR-4 ovarian
TK-10 renal = tested on: TK-10 renal
HCC-2998 colon = tested on: HCC-2998 colon
SR leukemia = tested on: SR leukemia
MDA-MB-231 breast = tested on: MDA-MB-231 breast
HL-60(TB) leukemia = tested on: HL-60(TB) leukemia
NCI-H460 lung = tested on: NCI-H460 lung
MOLT-4 leukemia = tested on: MOLT-4 leukemia
RPMI-8226 leukemia = tested on: RPMI-8226 leukemia
M14 melanoma = tested on: M14 melanoma
IGROV1 ovarian = tested on: IGROV1 ovarian
HOP-92 NSCLC = tested on: HOP-92 NSCLC
NCI-H23 lung = tested on: NCI-H23 lung
EKVX NSCLC = tested on: EKVX NSCLC
DU-145 prostate = tested on: DU-145 prostate
MDA-N = tested on: MDA-N

Row | Compound | TGI (OVCAR-4 ovarian) [µM] | TGI (TK-10 renal) [µM] | TGI (HCC-2998 colon) [µM] | TGI (SR leukemia) [µM] | TGI (MDA-MB-231 breast) [µM] | TGI (HL-60(TB) leukemia) [µM] | TGI (NCI-H460 lung) [µM] | TGI (MOLT-4 leukemia) [µM] | TGI (RPMI-8226 leukemia) [µM] | TGI (M14 melanoma) [µM] | TGI (IGROV1 ovarian) [µM] | TGI (HOP-92 NSCLC) [µM] | TGI (NCI-H23 lung) [µM] | TGI (EKVX NSCLC) [µM] | TGI (DU-145 prostate) [µM] | TGI (MDA-N) [µM] | GI50 (OVCAR-4 ovarian) [µM] | GI50 (TK-10 renal) [µM] | GI50 (EKVX NSCLC) [µM] | GI50 (DU-145 prostate) [µM]
1 | CCOC(=O)c1sc2nc(SC)nc3c2c1NC(=O)CN3c1ccc(F)cc1 | > 100 | > 100 | > 100 | > 100 | > 100 | > 100 | > 100 | > 100 | > 100 | > 100 | > 100 | > 100 | > 100 | > 100 | 97.9 | > 100 | – | – | – | –
2 | C=C(C)[C@@H]1CC[C@]2(C(=O)O)CC[C@]3(C)[C@H](CC[C@@H]4[C@@]5(C)C/C(=C/c6ccco6)C(=O)C(C)(C)[C@@H]5CC[C@]43C)[C@@H]12 | > 100 | 46.9 | – | – | – | – | – | – | – | – | – | – | – | > 100 | 12.2 | – | 5.9 | 3.65 | 2.73 | 3.07
3 | COc1cc2cc(C(=O)N3CC(CCl)c4ccc(NO)cc43)[nH]c2c(OC)c1OC (centres undefined) | 0.774 | > 100 | 1.07 | > 100 | – | 0.403 | > 37.7 | 0.61 | 0.442 | 0.768 | 10.3 | – | 0.166 | 2.15 | > 31 | 0.727 | – | – | – | –
4 | CC(=O)NC1C(OCc2ccccc2)OC(CO)C(O)C1OCC(=O)NC(C(=O)NC(CCC(=O)NCCCCCC(=O)Nc1ccc2c(c1)CN1C(=O)c3ccccc3C1=N2)C(N)=O)C(C)C (centres undefined) | 53 | 39.6 | > 100 | > 100 | 63.3 | > 100 | 51.2 | > 100 | > 100 | > 100 | 50.4 | > 100 | > 100 | > 100 | > 100 | > 100 | – | – | – | –
5 | CCCCC(CC)C(=O)Oc1ccc(C(=O)c2ccccc2)c(O)c1 (centres undefined) | > 100 | > 100 | > 100 | – | > 100 | > 100 | > 100 | > 100 | > 100 | > 100 | > 100 | 59.4 | > 100 | > 100 | > 100 | > 100 | – | – | – | –
